Source: patent US20230407243A1, “GENETIC PLATFORM TO INVESTIGATE THE FUNCTIONS OF BACTERIAL DRUG EFFLUX PUMPS” (priority 2022, published 2023)
Where two headings read alike, the source gives them in different places.

How the values were obtained:
Type in all cases: cell-based, Escherichia coli
EKO-35 araC::acrD = assay: MIC susceptibility profiling, efflux platform; details: for MIC: Escherichia coli, Table 13A, non-porinated, technical duplicate, read-out: Minimum Inhibitory Concentration, EKO-35 araC::acrD
How it was run: (§1)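 LB o/n 37 °C → PBS pH 7.4, OD600 ~1.0 → 1/2000 in MHB II; 2-fold cmpd series, duplicate, DMSO ctrl; 18 h 37 °C, 900 rpm; OD600 post minus pre.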

[1] = test system: EKO-35 araC::mexCD (MexCD from P. aeruginosa); assay: MIC susceptibility profiling, efflux platform; details: for MIC: Table 13B, non-porinated, technical duplicate, read-out: Minimum Inhibitory Concentration, EKO-35 araC::mexCD
How it was run: as §1

EKO-35 araC::acrB = assay: MIC susceptibility profiling, efflux platform; details: for MIC: Escherichia coli, Table 13A, non-porinated, technical duplicate, read-out: Minimum Inhibitory Concentration, EKO-35 araC::acrB
How it was run: as §1

EKO-35 araC::mdtBC = assay: MIC susceptibility profiling, efflux platform; details: for MIC: Escherichia coli, Table 13B, non-porinated, technical duplicate, read-out: Minimum Inhibitory Concentration, EKO-35 araC::mdtBC
How it was run: as §1

[2] = test system: EKO-35 strains producing different efflux pumps (EKO-35 araC::X); assay: Checkerboard synergy (FICI) of PAβN or NMP with antibiotics
How it was run: (§2)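 Interaction of PAβN or NMP with antibiotics is scored as FICI = CA/MICA + CB/MICB, from MICs (no growth, OD600) in MHB II checkerboard microdilution following CLSI. Solvent controls accompany every plate.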

E. coli EKO-35 = assay: microbe, parasite or virus in culture; details: for MIC: Escherichia coli, EKO35, technical duplicate
How it was run: as §1

E. coli ΔtolC = assay: microbe, parasite or virus in culture; details: for MIC: Escherichia coli, 18 h, read-out: Minimum Inhibitory Concentration, ΔtolC; for Minimum inhibitory concentration (MIC), ΔtolC: Table 10, without pore, technical duplicate
How it was run: as §1

[3] = test system: wild-type E. coli K-12 str. BW25113; assay: microbe, parasite or virus in culture; details: Escherichia coli, BW25113, technical duplicate
How it was run: as §1

EKO-35-Pore = assay: MIC susceptibility profiling, porinated strain; details: for MIC: Escherichia coli, technical duplicate
How it was run: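 Strains carry the fhuA ΔC/Δ4L pore integrated between glmS and pstS under a constitutive promoter, with pore activity checked by vancomycin susceptibility. Overnight LB cultures were adjusted in PBS pH 7.4 to OD600 ~1.0 and diluted 1/2000 into MHB II. 2-fold compound titrations were read by OD600 after 18 h at 37 °C.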

wild-type E. coli K-12 = test system: wild-type E. coli K-12
How it was run: as §2

[4] = EKO-35 mdtEF, PAβN + antibiotic
[5] = strain EKO-35 acrB, NMP + antibiotic
[6] = strain EKO-35 acrB, antibiotic in combination with NMP
[7] = strain EKO-35 acrEF, NMP + antibiotic
[8] = strain EKO-35 acrEF, antibiotic alone
[9] = strain EKO-35 acrEF, antibiotic in combination with NMP
[10] = strain EKO-35 mdtEF, NMP + antibiotic
[11] = Table 10, without pore, read-out: Minimum inhibitory concentration (MIC), EKO-35
[12] = Table 13A, non-porinated, read-out: Minimum Inhibitory Concentration, EKO-35
[13] = Table 10, without pore, read-out: Minimum inhibitory concentration (MIC), K-12
[14] = Table 13A, non-porinated, read-out: Minimum Inhibitory Concentration, K-12
[15] = Table 10, with pore, read-out: Minimum inhibitory concentration (MIC), Pore EKO-35
[16] = Table 14A, porinated, read-out: Minimum inhibitory concentration, EKO-35-Pore
[17] = strain K-12, antibiotic in combination with NMP

CC[C@H]1OC(=O)[C@H](C)[C@@H](O[C@H]2C[C@@](C)(OC)[C@@H](O)[C@H](C)O2)[C@H](C)[C@@H](O[C@@H]2O[C@H](C)C[C@H](N(C)C)[C@H]2O)[C@](C)(O)C[C@@H](C)C(=O)[C@H](C)[C@@H](O)[C@]1(C)O [erythromycin]
MIC (EKO-35 araC::acrD): 3.12 mg/L | MIC [1]: 25 mg/L | MIC (EKO-35 araC::acrB): 100 mg/L | MIC (EKO-35 araC::mdtBC): 3.12 mg/L | Effect ([2]; EKO-35 acrB, NMP + antibiotic): Additive | FICI ([2]; EKO-35 acrB, NMP + antibiotic): 0.531 | Effect ([2]; EKO-35 acrB, PAβN + antibiotic): Synergistic | FICI ([2]; EKO-35 acrB, PAβN + antibiotic): 0.078 | MICb Alone ([2]; EKO-35 acrB, antibiotic alone (PAβN checkerboard)): 64 µg/mL | MICb Combined ([2]; EKO-35 acrB, antibiotic in combination with PAβN): 1 µg/mL | FICI ([2]; EKO-35 acrEF, NMP + antibiotic): 2.000 | Effect ([2]; EKO-35 acrEF, PAβN + antibiotic): Synergistic | MICb Alone ([2]; EKO-35 acrEF, antibiotic alone (PAβN checkerboard)): 8 µg/mL | MICb Combined ([2]; EKO-35 acrEF, antibiotic in combination with PAβN): 0.5 µg/mL | Effect ([2]; EKO-35 mdtEF, NMP + antibiotic): Synergistic | FICI ([2]; EKO-35 mdtEF, NMP + antibiotic): 0.250 | Effect [2, 4]: Synergistic | FICI [2, 4]: 0.094 | MICb Alone ([2]; EKO-35 mdtEF, antibiotic alone (PAβN checkerboard)): 16 µg/mL | MICb Combined ([2]; EKO-35 mdtEF, antibiotic in combination with PAβN): 0.5 µg/mL | Effect ([2]; EKO-35 mexCD, NMP + antibiotic): Synergistic | Effect ([2]; EKO-35 mexCD, PAβN + antibiotic): Synergistic | MICb Alone ([2]; EKO-35 mexCD, antibiotic alone (PAβN checkerboard)): 8 µg/mL | MICb Combined ([2]; EKO-35 mexCD, antibiotic in combination with PAβN): 0.5 µg/mL | Effect [2, 5]: Additive (additive (FICI >0.5-1.0)) | FICI [2, 5]: 0.531 | MICb Combined [2, 6]: 64 µg/mL | Effect [2, 7]: — (indifferent (FICI >1.0)) | FICI [2, 7]: 2.000 | MICb Alone [2, 8]: 8 µg/mL | MICb Combined [2, 9]: 8 µg/mL | Effect [2, 10]: Synergistic (Synergy (FICI ≤0.5)) | FICI [2, 10]: 0.250 | MICb Alone ([2]; strain EKO-35 mdtEF, antibiotic alone): 64 µg/mL | MICb Combined ([2]; strain EKO-35 mdtEF, antibiotic in combination with NMP): 8 µg/mL | Effect ([2]; strain EKO-35 mexCD, NMP + antibiotic): Synergistic (Synergy (FICI ≤0.5)) | MICb Alone ([2]; strain EKO-35 mexCD, antibiotic alone): 16 µg/mL | MICb Combined ([2]; strain EKO-35 mexCD, antibiotic in combination with NMP): 2 µg/mL | MIC (E. coli EKO-35; [11]): 3.12 mg/L | MIC (E. coli EKO-35; [12]): 3.12 mg/L | MIC (E. coli ΔtolC): 3.12 mg/L | Minimum inhibitory concentration (MIC), ΔtolC (E. coli ΔtolC): 3.125 mg/L | MIC [3, 13]: 100 mg/L | MIC [3, 14]: 100 mg/L | MIC (EKO-35-Pore; [15]): 0.195 mg/L | MIC (EKO-35-Pore; [16]): 0.195 mg/L | Effect (wild-type E. coli K-12; K-12, NMP + antibiotic): Additive | FICI (wild-type E. coli K-12; K-12, NMP + antibiotic): 0.625 | Effect (wild-type E. coli K-12; K-12, PAβN + antibiotic): Synergistic | FICI (wild-type E. coli K-12; K-12, PAβN + antibiotic): 0.094 | MICb Alone (wild-type E. coli K-12; K-12, antibiotic alone (PAβN checkerboard)): 64 µg/mL | MICb Combined (wild-type E. coli K-12; K-12, antibiotic in combination with PAβN): 2 µg/mL | Effect (wild-type E. coli K-12; strain K-12, NMP + antibiotic): Additive (additive (FICI >0.5-1.0)) | FICI (wild-type E. coli K-12; strain K-12, NMP + antibiotic): 0.625 | MICb Combined (wild-type E. coli K-12; [17]): 16 µg/mL

CC[n+]1c(-c2ccccc2)c2cc(N)ccc2c2ccc(N)cc21 [ethidium bromide]
Fold change of MICs (EKO-35 araC::acrD; EKO-35 araC::acrD compared to EKO-35): 2 fold | MIC (EKO-35 araC::acrD): 0.391 mg/L | Fold change of MICs ([1]; EKO-35 araC::mexCD compared to EKO-35): 8 fold | MIC [1]: 1.56 mg/L | Fold change of MICs (EKO-35 araC::acrB; EKO-35 araC::acrB compared to EKO-35): 64 fold | MIC (EKO-35 araC::acrB): 12.5 mg/L | Fold change of MICs (EKO-35 araC::mdtBC; EKO-35 araC::mdtBC compared to EKO-35): 1 fold | MIC (EKO-35 araC::mdtBC): 0.195 mg/L | FICI ([2]; EKO-35 acrB, NMP + antibiotic): 0.253 | FICI ([2]; EKO-35 acrEF, NMP + antibiotic): 0.500 | Effect [2, 5]: Synergistic (Synergy (FICI ≤0.5)) | FICI [2, 5]: 0.253 | MICb Alone ([2]; strain EKO-35 acrB, antibiotic alone): 15.6 µg/mL | MICb Combined [2, 6]: 2 µg/mL | Effect [2, 7]: Synergistic (Synergy (FICI ≤0.5)) | FICI [2, 7]: 0.500 | MICb Alone [2, 8]: 2 µg/mL | MICb Combined [2, 9]: 0.5 µg/mL | Fold change of MICs (E. coli EKO-35; EKO-35 compared to EKO-35 (reference)): 1 fold | MIC (E. coli EKO-35; [11]): 0.195 mg/L | MIC (E. coli EKO-35; [12]): 0.195 mg/L | MIC (E. coli ΔtolC): 3.12 mg/L | Minimum inhibitory concentration (MIC), ΔtolC (E. coli ΔtolC): 3.125 mg/L | MIC [3, 13]: 100 mg/L | MIC [3, 14]: 100 mg/L | Fold changes of MICs (EKO-35-Pore; EKO-35-Pore compared to EKO-35-Pore (reference)): 1 fold | MIC (EKO-35-Pore; [15]): 0.098 mg/L | MIC (EKO-35-Pore; [16]): 0.098 mg/L | FICI (wild-type E. coli K-12; K-12, NMP + antibiotic): 0.375 | Effect (wild-type E. coli K-12; strain K-12, NMP + antibiotic): Synergistic (Synergy (FICI ≤0.5)) | FICI (wild-type E. coli K-12; strain K-12, NMP + antibiotic): 0.375 | MICb Alone (wild-type E. coli K-12; strain K-12, antibiotic alone): 500 µg/mL | MICb Combined (wild-type E. coli K-12; [17]): 125 µg/mL
